In patent US8696101B2, “Photopolymerizable inkjet black ink, and ink cartridge, inkjet printer and printed material using the ink, and method of preparing the ink” (Ricoh Company, Ltd., priority 2011, dated 2014):

Legend:
[1] = skin sensitization test (LLNA method), OECD test guide line 429; type: in vivo; details: for Stimulation Index (SI value): photopolymerizable monomers used in clear inks B to K, SI less than 3 = no problem in skin sensitization
Method: The LLNA method is a skin sensitization test specified as OECD test guide line 429, and as shown on page 55 in “Functional Materials” Vol. 25, No. 9 published in September, 2005, the skin sensitization is determined to have no problem when Stimulation Index (SI value) showing a degree of the skin sensitization is less than 3.

[2] = evaluation taken from MSDS; cited from earlier work

| Compound | Stimulation Index (SI value) [1] | further results |
| --- | --- | --- |
| Tricyclodecanedimethanoldimethacrylate | 1.3 | – |
| C=CC(=O)OCC(C)(C)COC(=O)C=C [Neopentylglycol diacrylate, reference compound] | – | skin sensitization of photopolymerizable monomer (positive / negative grouping) ([1]; grouping printed in Table 1): Positive |
| γ-butyrolactone methacrylate | 2.1 | – |
| Polyethyleneglycol#400 dimethacrylate | 1.3 | – |
| Polyethyleneglycol#600 dimethacrylate | 1.6 | – |
| Caprolactone-modified neopentylglycolhydroxypivalate ester | 0.9 | – |
| Polyethoxylated tetramethylolmethanetetraacrylate | 1.7 | – |
| Caprolactone-modified dipentaerythritolhexaacrylate | – | skin sensitization (from MSDS) [2]: Negative skin |
